System: K24384-001-R-PDC complex spheroids, viability
Experiment: Anticancer human tumor K24384-001-R-PDC patient-derived pancreatic adenocarcinoma cell line growth inhibition [GQUAD]
Conditions: for IC50: curve of first compound; for viability, T/C: stronger effect = lower value
In short: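 Multi-cell-type spheroids of tumor cells with HUVEC and mesenchymal stem cells, treated with drug combinations. Concentrations descend in half-log steps from near clinical Cmax, or from 10 microM where Cmax is unknown; viability read-out.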

[1] = second compound 0.0316 µM, first compound 0.0316 µM
[2] = second compound 0.0316 µM, first compound 0.1 µM
[3] = second compound 0.0316 µM, first compound 0.316 µM
[4] = second compound 0.0316 µM, first compound 1 µM
[5] = second compound 0.0316 µM, first compound 3.16 µM
[6] = second compound 0.0316 µM, first compound 10 µM
[7] = second compound 0.1 µM, first compound 0.0316 µM
[8] = second compound 0.1 µM, first compound 0.1 µM
[9] = second compound 0.1 µM, first compound 0.316 µM
[10] = second compound 0.1 µM, first compound 1 µM
[11] = second compound 0.1 µM, first compound 3.16 µM
[12] = second compound 0.1 µM, first compound 10 µM
[13] = second compound 0.316 µM, first compound 0.0316 µM
[14] = second compound 0.316 µM, first compound 0.1 µM
[15] = second compound 0.316 µM, first compound 0.316 µM
[16] = second compound 0.316 µM, first compound 1 µM
[17] = second compound 0.316 µM, first compound 3.16 µM
[18] = second compound 0.316 µM, first compound 10 µM
[19] = second compound 1 µM, first compound 0.0316 µM
[20] = second compound 1 µM, first compound 0.1 µM
[21] = second compound 1 µM, first compound 0.316 µM
[22] = second compound 1 µM, first compound 1 µM
[23] = second compound 1 µM, first compound 3.16 µM
[24] = second compound 1 µM, first compound 10 µM
[25] = second compound 3.16 µM, first compound 0.0316 µM
[26] = second compound 3.16 µM, first compound 0.1 µM
[27] = second compound 3.16 µM, first compound 0.316 µM
[28] = second compound 3.16 µM, first compound 1 µM
[29] = second compound 3.16 µM, first compound 3.16 µM
[30] = second compound 3.16 µM, first compound 10 µM
[31] = second compound 10 µM, first compound 0.0316 µM
[32] = second compound 10 µM, first compound 0.1 µM
[33] = second compound 10 µM, first compound 0.316 µM
[34] = second compound 10 µM, first compound 1 µM
[35] = second compound 10 µM, first compound 3.16 µM
[36] = second compound 10 µM, first compound 10 µM
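Further: spheroids exposed to compounds for seven days.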

CCCS(=O)(=O)Nc1ccc(F)c(C(=O)c2c[nH]c3ncc(-c4ccc(Cl)cc4)cc23)c1F + Cc1cnc(CNC(=O)c2c(=O)c3ccc(N4CCCN(C)CC4)nc3n3c2sc2ccccc23)cn1 was tested, and the IC50 (second compound 0.0316 µM) was 8050 nM, the IC50 (second compound 0.1 µM) was 6380 nM and the IC50 (second compound 0.316 µM) was over 10000 nM. For the same compound, the IC50 (second compound 1 µM) was under 31.6 nM, the IC50 (second compound 3.16 µM) was under 31.6 nM and the IC50 (second compound 10 µM) was under 31.6 nM. The viability, T/C [1] was 78%, the viability, T/C [2] was 84.4% and the viability, T/C [3] was 113%. The viability, T/C [4] was 93.8%, the viability, T/C [5] was 105% and the viability, T/C [6] was 39.5%. The viability, T/C [7] was 50.8%, the viability, T/C [8] was 84.2% and the viability, T/C [9] was 63.4%. It also gave a viability, T/C [10] of 90.9%, a viability, T/C [11] of 90.6% and a viability, T/C [12] of 33.5%. It also gave a viability, T/C [13] of 48.5%, a viability, T/C [14] of 56.8% and a viability, T/C [15] of 62%. It also gave a viability, T/C [16] of 64.8%, a viability, T/C [17] of 65.9% and a viability, T/C [18] of 31.1%. It also gave a viability, T/C [19] of 37.2%, a viability, T/C [20] of 36% and a viability, T/C [21] of 33.6%. The viability, T/C [22] was 48.3%, the viability, T/C [23] was 60.2% and the viability, T/C [24] was 29%. The viability, T/C [25] was 39.4%, the viability, T/C [26] was 35.2% and the viability, T/C [27] was 37.1%. It also gave a viability, T/C [28] of 34.6%, a viability, T/C [29] of 39.5% and a viability, T/C [30] of 16.2%. It also gave a viability, T/C [31] of 0.22%, a viability, T/C [32] of 0.41% and a viability, T/C [33] of 0.78%. The viability, T/C [34] was 0.33%, the viability, T/C [35] was 0.23% and the viability, T/C [36] was 0.18%.

For Cc1[nH]c2ccccc2c1CCNCc1ccc(/C=C/C(=O)NO)cc1 + Cc1cnc(CNC(=O)c2c(=O)c3ccc(N4CCCN(C)CC4)nc3n3c2sc2ccccc23)cn1, the IC50 (second compound 0.0316 µM) was 118 nM, the IC50 (second compound 0.1 µM) was 79.4 nM and the IC50 (second compound 0.316 µM) was 39.5 nM. It also gave an IC50 (second compound 1 µM) of under 0.999 nM, an IC50 (second compound 3.16 µM) of under 0.999 nM and an IC50 (second compound 10 µM) of under 0.999 nM. It also gave a viability, T/C (second compound 0.0316 µM, first compound 0.000999 µM) of 83.9%, a viability, T/C (second compound 0.0316 µM, first compound 0.00316 µM) of 75.8% and a viability, T/C (second compound 0.0316 µM, first compound 0.00999 µM) of 109%. The viability, T/C [1] was 82.9%, the viability, T/C (second compound 0.0316 µM, first compound 0.0999 µM) was 57.4% and the viability, T/C [3] was 6.49%. The viability, T/C (second compound 0.1 µM, first compound 0.000999 µM) was 65.4%, the viability, T/C (second compound 0.1 µM, first compound 0.00316 µM) was 81.2% and the viability, T/C (second compound 0.1 µM, first compound 0.00999 µM) was 74.7%. It also gave a viability, T/C [7] of 57%, a viability, T/C (second compound 0.1 µM, first compound 0.0999 µM) of 48.9% and a viability, T/C [9] of 5.15%. The viability, T/C (second compound 0.316 µM, first compound 0.000999 µM) was 45.5%, the viability, T/C (second compound 0.316 µM, first compound 0.00316 µM) was 54.4% and the viability, T/C (second compound 0.316 µM, first compound 0.00999 µM) was 63.1%. The viability, T/C [13] was 44.8%, the viability, T/C (second compound 0.316 µM, first compound 0.0999 µM) was 45.6% and the viability, T/C [15] was 1.86%. The viability, T/C (second compound 1 µM, first compound 0.000999 µM) was 41.3%, the viability, T/C (second compound 1 µM, first compound 0.00316 µM) was 41.8% and the viability, T/C (second compound 1 µM, first compound 0.00999 µM) was 37.3%. It also gave a viability, T/C [19] of 37.3%, a viability, T/C (second compound 1 µM, first compound 0.0999 µM) of 28.2% and a viability, T/C [21] of 0.15%. It also gave a viability, T/C (second compound 3.16 µM, first compound 0.000999 µM) of 33.8%, a viability, T/C (second compound 3.16 µM, first compound 0.00316 µM) of 33.3% and a viability, T/C (second compound 3.16 µM, first compound 0.00999 µM) of 35.4%. For the same compound, the viability, T/C [25] was 34.6%, the viability, T/C (second compound 3.16 µM, first compound 0.0999 µM) was 13.5% and the viability, T/C [27] was 0.12%. For the same compound, the viability, T/C (second compound 10 µM, first compound 0.000999 µM) was 0.27%, the viability, T/C (second compound 10 µM, first compound 0.00316 µM) was 0.26% and the viability, T/C (second compound 10 µM, first compound 0.00999 µM) was 0.28%. For the same compound, the viability, T/C [31] was 0.32%, the viability, T/C (second compound 10 µM, first compound 0.0999 µM) was 0.26% and the viability, T/C [33] was 0.21%.

O=C(NO)c1cnc(N2CCN(S(=O)(=O)c3ccc4ccccc4c3)CC2)nc1 + Cc1cnc(CNC(=O)c2c(=O)c3ccc(N4CCCN(C)CC4)nc3n3c2sc2ccccc23)cn1 gave an IC50 (second compound 0.0316 µM) of 477 nM, an IC50 (second compound 0.1 µM) of 325 nM and an IC50 (second compound 0.316 µM) of 151 nM. The IC50 (second compound 1 µM) was under 31.6 nM, the IC50 (second compound 3.16 µM) was under 31.6 nM and the IC50 (second compound 10 µM) was under 31.6 nM. For the same compound, the viability, T/C [1] was 86.3%, the viability, T/C [2] was 78% and the viability, T/C [3] was 77.2%. The viability, T/C [4] was 0.9%, the viability, T/C [5] was 0.08% and the viability, T/C [6] was 0.11%. For the same compound, the viability, T/C [7] was 65.2%, the viability, T/C [8] was 78.7% and the viability, T/C [9] was 51.2%. The viability, T/C [10] was 1.11%, the viability, T/C [11] was 0.09% and the viability, T/C [12] was 0.11%. For the same compound, the viability, T/C [13] was 42.7%, the viability, T/C [14] was 73% and the viability, T/C [15] was 35.8%. The viability, T/C [16] was 0.16%, the viability, T/C [17] was 0.07% and the viability, T/C [18] was 0.09%. For the same compound, the viability, T/C [19] was 38.9%, the viability, T/C [20] was 43.9% and the viability, T/C [21] was 31.3%. The viability, T/C [22] was 0.12%, the viability, T/C [23] was 0.07% and the viability, T/C [24] was 0.11%. The viability, T/C [25] was 33.3%, the viability, T/C [26] was 34.1% and the viability, T/C [27] was 16.3%. It also gave a viability, T/C [28] of 0.12%, a viability, T/C [29] of 0.1% and a viability, T/C [30] of 0.14%. The viability, T/C [31] was 0.16%, the viability, T/C [32] was 0.23% and the viability, T/C [33] was 0.19%. For the same compound, the viability, T/C [34] was 0.16%, the viability, T/C [35] was 0.17% and the viability, T/C [36] was 0.16%.
